In US10239869B2, “Sulfonamide compounds as voltage-gated sodium channel modulators” (LUPIN LIMITED, priority 2015, dated 2019):
Like-named read-outs stand apart in the source and are kept apart here.

Key:
Nav 1.5 = Nav 1.5 (Homo sapiens (Human), UniProt Q14524); experiment: Inhibition of sodium channels, Red Membrane Potential Dye FLIPR assay, veratridine depolarization; type: cell-based; details: HEK-293 cells overexpressing the channel
Nav 1.7 = Nav 1.7 (Homo sapiens (Human), UniProt Q15858); experiment: as above; type: cell-based; details: HEK-293 cells overexpressing the channel; read-out: Nav1.7 IC50
[1] = read-out: Nav1.5 IC50 (bound given in μM)

Nav 1.7, sequence (Q15858 whole entry): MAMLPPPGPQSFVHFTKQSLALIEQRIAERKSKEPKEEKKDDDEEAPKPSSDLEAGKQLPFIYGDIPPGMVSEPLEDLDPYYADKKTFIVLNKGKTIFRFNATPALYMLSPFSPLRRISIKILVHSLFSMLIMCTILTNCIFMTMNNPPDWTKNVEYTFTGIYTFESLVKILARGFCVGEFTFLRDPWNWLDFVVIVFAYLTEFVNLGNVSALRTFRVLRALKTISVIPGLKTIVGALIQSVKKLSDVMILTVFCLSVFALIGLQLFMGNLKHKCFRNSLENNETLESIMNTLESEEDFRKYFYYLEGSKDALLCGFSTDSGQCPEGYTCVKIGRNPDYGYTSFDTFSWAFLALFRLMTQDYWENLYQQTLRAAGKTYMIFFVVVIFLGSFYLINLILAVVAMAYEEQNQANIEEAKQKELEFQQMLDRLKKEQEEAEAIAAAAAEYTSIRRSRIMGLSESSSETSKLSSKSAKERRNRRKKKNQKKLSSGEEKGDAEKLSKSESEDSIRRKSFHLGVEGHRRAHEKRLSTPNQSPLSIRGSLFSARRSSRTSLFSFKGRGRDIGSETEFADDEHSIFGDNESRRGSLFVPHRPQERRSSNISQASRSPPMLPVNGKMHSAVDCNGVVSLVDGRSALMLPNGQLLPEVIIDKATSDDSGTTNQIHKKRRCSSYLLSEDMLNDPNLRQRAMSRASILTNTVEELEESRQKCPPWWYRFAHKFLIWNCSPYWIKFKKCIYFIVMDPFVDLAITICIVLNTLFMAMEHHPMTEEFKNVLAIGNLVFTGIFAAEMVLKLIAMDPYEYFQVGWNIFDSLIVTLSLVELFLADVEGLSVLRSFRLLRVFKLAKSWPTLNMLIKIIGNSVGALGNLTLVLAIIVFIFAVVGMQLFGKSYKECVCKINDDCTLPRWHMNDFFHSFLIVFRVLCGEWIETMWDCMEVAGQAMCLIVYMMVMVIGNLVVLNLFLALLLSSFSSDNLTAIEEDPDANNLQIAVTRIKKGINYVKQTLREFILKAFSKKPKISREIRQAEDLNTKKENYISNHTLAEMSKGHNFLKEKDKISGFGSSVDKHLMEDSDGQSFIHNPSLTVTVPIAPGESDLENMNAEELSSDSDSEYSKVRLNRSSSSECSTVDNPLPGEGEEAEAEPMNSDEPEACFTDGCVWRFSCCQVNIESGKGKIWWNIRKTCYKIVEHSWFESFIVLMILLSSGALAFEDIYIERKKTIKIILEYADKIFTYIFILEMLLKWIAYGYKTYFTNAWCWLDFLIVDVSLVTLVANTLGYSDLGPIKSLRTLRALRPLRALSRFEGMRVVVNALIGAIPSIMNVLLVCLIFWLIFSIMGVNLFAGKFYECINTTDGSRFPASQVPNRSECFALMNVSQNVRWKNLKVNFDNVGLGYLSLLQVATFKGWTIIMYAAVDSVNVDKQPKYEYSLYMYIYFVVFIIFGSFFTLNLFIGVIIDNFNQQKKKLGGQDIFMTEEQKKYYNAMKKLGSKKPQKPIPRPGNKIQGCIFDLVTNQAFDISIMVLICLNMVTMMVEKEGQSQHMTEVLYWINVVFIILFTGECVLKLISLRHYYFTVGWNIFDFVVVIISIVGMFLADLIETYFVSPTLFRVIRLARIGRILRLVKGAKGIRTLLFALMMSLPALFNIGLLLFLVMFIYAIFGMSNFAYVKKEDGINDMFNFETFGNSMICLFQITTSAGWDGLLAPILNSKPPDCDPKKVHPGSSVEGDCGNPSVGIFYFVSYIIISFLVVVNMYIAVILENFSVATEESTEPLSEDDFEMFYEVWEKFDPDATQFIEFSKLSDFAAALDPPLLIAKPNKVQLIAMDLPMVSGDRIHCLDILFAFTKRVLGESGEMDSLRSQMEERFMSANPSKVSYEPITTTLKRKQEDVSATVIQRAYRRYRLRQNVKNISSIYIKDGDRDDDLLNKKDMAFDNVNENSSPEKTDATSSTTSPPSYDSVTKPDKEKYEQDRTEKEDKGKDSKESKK
Nav 1.5, sequence (Q14524 whole entry): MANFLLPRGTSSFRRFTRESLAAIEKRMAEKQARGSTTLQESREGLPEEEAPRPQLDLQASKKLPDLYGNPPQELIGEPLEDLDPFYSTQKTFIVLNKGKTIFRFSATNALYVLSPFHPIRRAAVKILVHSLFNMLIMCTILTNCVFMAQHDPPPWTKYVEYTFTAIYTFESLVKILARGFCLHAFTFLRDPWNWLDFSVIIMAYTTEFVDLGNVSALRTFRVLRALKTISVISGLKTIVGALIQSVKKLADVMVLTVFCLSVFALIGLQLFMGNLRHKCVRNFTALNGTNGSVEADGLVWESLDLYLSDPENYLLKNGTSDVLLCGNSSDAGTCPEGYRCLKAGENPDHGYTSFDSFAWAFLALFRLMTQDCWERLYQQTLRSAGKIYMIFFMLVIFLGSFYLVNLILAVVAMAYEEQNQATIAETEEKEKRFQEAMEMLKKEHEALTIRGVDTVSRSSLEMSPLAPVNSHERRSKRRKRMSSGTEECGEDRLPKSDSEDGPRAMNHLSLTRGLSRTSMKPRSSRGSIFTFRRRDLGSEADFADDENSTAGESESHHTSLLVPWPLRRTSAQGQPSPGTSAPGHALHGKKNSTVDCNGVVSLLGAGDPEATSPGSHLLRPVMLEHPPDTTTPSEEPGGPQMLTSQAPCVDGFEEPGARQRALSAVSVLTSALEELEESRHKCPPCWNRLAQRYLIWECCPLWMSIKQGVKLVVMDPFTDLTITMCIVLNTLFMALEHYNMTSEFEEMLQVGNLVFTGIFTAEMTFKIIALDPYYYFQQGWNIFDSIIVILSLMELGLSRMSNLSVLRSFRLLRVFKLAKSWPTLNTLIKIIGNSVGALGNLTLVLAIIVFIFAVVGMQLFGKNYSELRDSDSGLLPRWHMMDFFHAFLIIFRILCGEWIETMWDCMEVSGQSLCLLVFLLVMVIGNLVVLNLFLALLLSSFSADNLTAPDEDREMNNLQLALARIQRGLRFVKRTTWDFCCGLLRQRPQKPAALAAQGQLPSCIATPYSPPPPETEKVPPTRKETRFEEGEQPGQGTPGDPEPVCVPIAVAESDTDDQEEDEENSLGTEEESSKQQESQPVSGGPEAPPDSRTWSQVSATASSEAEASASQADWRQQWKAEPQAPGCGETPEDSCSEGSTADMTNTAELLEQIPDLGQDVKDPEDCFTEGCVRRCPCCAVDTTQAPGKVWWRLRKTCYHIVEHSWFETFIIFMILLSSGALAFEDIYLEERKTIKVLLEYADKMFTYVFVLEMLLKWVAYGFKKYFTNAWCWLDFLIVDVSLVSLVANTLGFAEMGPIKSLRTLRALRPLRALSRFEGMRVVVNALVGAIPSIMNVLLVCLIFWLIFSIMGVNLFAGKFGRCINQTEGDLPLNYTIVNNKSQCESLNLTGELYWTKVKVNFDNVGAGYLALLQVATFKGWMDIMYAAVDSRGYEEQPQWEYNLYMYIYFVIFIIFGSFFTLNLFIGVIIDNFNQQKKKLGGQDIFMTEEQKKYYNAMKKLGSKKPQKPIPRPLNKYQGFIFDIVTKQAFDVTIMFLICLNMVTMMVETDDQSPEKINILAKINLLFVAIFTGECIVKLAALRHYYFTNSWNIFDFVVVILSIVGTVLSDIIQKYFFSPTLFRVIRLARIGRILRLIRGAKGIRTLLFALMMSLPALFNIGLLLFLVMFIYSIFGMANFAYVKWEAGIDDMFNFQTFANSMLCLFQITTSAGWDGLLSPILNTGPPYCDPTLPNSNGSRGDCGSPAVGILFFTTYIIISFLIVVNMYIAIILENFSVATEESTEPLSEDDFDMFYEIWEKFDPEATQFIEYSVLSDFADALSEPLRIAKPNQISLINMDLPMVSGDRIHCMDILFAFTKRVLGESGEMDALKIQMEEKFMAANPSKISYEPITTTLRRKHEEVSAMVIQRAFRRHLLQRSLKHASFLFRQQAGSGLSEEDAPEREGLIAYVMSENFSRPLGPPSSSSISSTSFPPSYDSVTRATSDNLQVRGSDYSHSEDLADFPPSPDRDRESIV

Row | Compound | IC50 (Nav 1.5; read-out: Nav1.5 IC50) [µM] | IC50 (Nav 1.7) [nM] | IC50 (Nav 1.5; [1]) [µM] | Nav1.5 % inhibition @ 10 μM (Nav 1.5) [%]
1 | COCCOc1cc(C(F)(F)F)ccc1[C@H]1CCOc2cc(S(=O)(=O)Nc3ncccn3)ccc21 [Example 125, (S&R)-4-(2-(2-methoxyethoxy)-4-(trifluoromethyl)phenyl)-N-(pyrimidin-2-yl)chroman-7-sulfonamide] | 2.64 | 395 | – | –
2 | COCCCOc1cc(C(F)(F)F)ccc1[C@@H]1CCOc2cc(S(=O)(=O)Nc3ncccn3)ccc21 [Example 130, (S&R)-4-(2-(3-methoxypropoxy)-4-(trifluoromethyl)phenyl)-N-(pyrimidin-2-yl)chroman-7-sulfonamide] | – | 1690 | > 10 | –
3 | COCCCOc1cc(C(F)(F)F)ccc1[C@H]1CCOc2cc(S(=O)(=O)Nc3ncccn3)ccc21 [Example 131, (S&R)-4-(2-(3-methoxypropoxy)-4-(trifluoromethyl)phenyl)-N-(pyrimidin-2-yl)chroman-7-sulfonamide] | – | 53 | – | 66
4 | COCCCc1cc(C(F)(F)F)ccc1[C@@H]1CCOc2cc(S(=O)(=O)Nc3ncccn3)ccc21 [Example 140, (S&R)-4-(2-(3-methoxypropyl)-4-(trifluoromethyl)phenyl)-N-(pyrimidin-2-yl)chroman-7-sulfonamide] | – | 1740 | > 10 | –
5 | COCCCc1cc(C(F)(F)F)ccc1[C@H]1CCOc2cc(S(=O)(=O)Nc3ncccn3)ccc21 [Example 141, (S&R)-4-(2-(3-methoxypropyl)-4-(trifluoromethyl)phenyl)-N-(pyrimidin-2-yl)chroman-7-sulfonamide] | – | 69 | – | 65
6 | COCCCCc1cc(C(F)(F)F)ccc1[C@@H]1CCOc2cc(S(=O)(=O)Nc3ncccn3)ccc21 [Example 146, (S&R)-4-(2-(4-methoxybutyl)-4-(trifluoromethyl)phenyl)-N-(pyrimidin-2-yl)chroman-7-sulfonamide] | – | 790 | > 10 | –
7 | COCCCCc1cc(C(F)(F)F)ccc1[C@H]1CCOc2cc(S(=O)(=O)Nc3ncccn3)ccc21 [Example 147, (S&R)-4-(2-(4-methoxybutyl)-4-(trifluoromethyl)phenyl)-N-(pyrimidin-2-yl)chroman-7-sulfonamide] | – | 199 | – | 60
8 | COCCCCc1cc(C(F)(F)F)ccc1[C@@H]1CCOc2cc(S(=O)(=O)Nc3cccc(F)n3)ccc21 [Example 151, (S&R)—N-(6-fluoropyridin-2-yl)-4-(2-(4-methoxybutyl)-4-(trifluoromethyl)phenyl)chroman-7-sulfonamide] | – | 390 | – | 57
9 | COCCCCc1cc(C(F)(F)F)ccc1[C@H]1CCOc2cc(S(=O)(=O)Nc3cccc(F)n3)ccc21 [Example 152, (S&R)—N-(6-fluoropyridin-2-yl)-4-(2-(4-methoxybutyl)-4-(trifluoromethyl)phenyl)chroman-7-sulfonamide] | – | 40 | – | 67
10 | O=S(=O)(Nc1ncccn1)c1ccc2c(c1)OCC[C@H]2c1ccc(C(F)(F)F)cc1OC1CCOCC1 [Example-168, (R&S)—N-(pyrimidin-2-yl)-4-(2-((tetrahydro-2H-pyran-4-yl)oxy)-4-(trifluoromethyl)phenyl)chroman-7-sulfonamide] | – | 3900 | > 10 | –
11 | O=S(=O)(Nc1ncccn1)c1ccc2c(c1)OCC[C@@H]2c1ccc(C(F)(F)F)cc1OC1CCOCC1 [Example-169, (R&S)—N-(pyrimidin-2-yl)-4-(2-((tetrahydro-2H-pyran-4-yl)oxy)-4-(trifluoromethyl)phenyl)chroman-7-sulfonamide] | 4.89 | 43 | – | –
12 | O=S(=O)(Nc1ncc(F)cn1)c1ccc2c(c1)OCC[C@H]2c1ccc(C(F)(F)F)cc1OC1CCOCC1 [Example-170, (R&S)—N-(5-fluoropyrimidin-2-yl)-4-(2-((tetrahydro-2H-pyran-4-yl)oxy)-4-(trifluoromethyl)phenyl)chroman-7-sulfonamide] | – | 1090 | > 10 | –
13 | O=S(=O)(Nc1ncc(F)cn1)c1ccc2c(c1)OCC[C@@H]2c1ccc(C(F)(F)F)cc1OC1CCOCC1 [Example-171, (R&S)—N-(5-fluoropyrimidin-2-yl)-4-(2-((tetrahydro-2H-pyran-4-yl)oxy)-4-(trifluoromethyl)phenyl)chroman-7-sulfonamide] | – | 125 | – | 53
14 | O=S(=O)(Nc1ccncn1)c1ccc2c(c1)OCC[C@H]2c1ccc(C(F)(F)F)cc1OC1CCOCC1 [Example-172, (R&S)—N-(pyrimidin-4-yl)-4-(2-((tetrahydro-2H-pyran-4-yl)oxy)-4-(trifluoromethyl)phenyl)chroman-7-sulfonamide] | – | 2740 | > 10 | –
15 | O=S(=O)(Nc1ccncn1)c1ccc2c(c1)OCC[C@@H]2c1ccc(C(F)(F)F)cc1OC1CCOCC1 [Example-173, (R&S)—N-(pyrimidin-4-yl)-4-(2-((tetrahydro-2H-pyran-4-yl)oxy)-4-(trifluoromethyl)phenyl)chroman-7-sulfonamide] | – | 12 | – | 63
16 | O=S(=O)(Nc1cccnn1)c1ccc2c(c1)OCC[C@H]2c1ccc(C(F)(F)F)cc1OC1CCOCC1 [Example-174, (R&S)—N-(pyridazin-3-yl)-4-(2-((tetrahydro-2H-pyran-4-yl)oxy)-4-(trifluoromethyl)phenyl)chroman-7-sulfonamide] | – | 2460 | > 10 | –
17 | O=S(=O)(Nc1cccnn1)c1ccc2c(c1)OCC[C@@H]2c1ccc(C(F)(F)F)cc1OC1CCOCC1 [Example-175, (R&S)—N-(pyridazin-3-yl)-4-(2-((tetrahydro-2H-pyran-4-yl)oxy)-4-(trifluoromethyl)phenyl)chroman-7-sulfonamide] | 1.69 | 248 | – | –
18 | O=S(=O)(Nc1cccc(F)n1)c1ccc2c(c1)OCC[C@H]2c1ccc(C(F)(F)F)cc1OC1CCOCC1 [Example-176, (R&S)—N-(6-fluoropyridin-2-yl)-4-(2-((tetrahydro-2H-pyran-4-yl)oxy)-4-(trifluoromethyl)phenyl)chroman-7-sulfonamide] | – | 1310 | – | 57
19 | O=S(=O)(Nc1cccc(F)n1)c1ccc2c(c1)OCC[C@@H]2c1ccc(C(F)(F)F)cc1OC1CCOCC1 [Example-177, (R&S)—N-(6-fluoropyridin-2-yl)-4-(2-((tetrahydro-2H-pyran-4-yl)oxy)-4-(trifluoromethyl)phenyl)chroman-7-sulfonamide] | 0.232 | 11 | – | –
20 | O=S(=O)(Nc1ncccn1)c1ccc2c(c1)OCCC2c1ccc(C(F)(F)F)cc1O[C@H]1CCOC1 (stereo partly drawn) [Example-178, (R&S)—N-(pyrimidin-2-yl)-4-(2-(((S)-tetrahydrofuran-3-yl)oxy)-4-(trifluoromethyl)phenyl)chroman-7-sulfonamide] | – | 149 | > 10 | –
21 | O=S(=O)(Nc1ncccn1)c1ccc2c(c1)OCCC2c1ccc(C(F)(F)F)cc1O[C@H]1CCOC1 (stereo partly drawn) [Example-179, (R&S)—N-(pyrimidin-2-yl)-4-(2-(((S)-tetrahydrofuran-3-yl)oxy)-4-(trifluoromethyl)phenyl)chroman-7-sulfonamide] | – | 38 | – | 64
22 | O=S(=O)(Nc1cccc(F)n1)c1ccc2c(c1)OCCC2c1ccc(C(F)(F)F)cc1O[C@H]1CCOC1 (stereo partly drawn) [Example-180, (R&S)—N-(6-fluoropyridin-2-yl)-4-(2-(((S)-tetrahydrofuran-3-yl)oxy)-4-(trifluoromethyl)phenyl)chroman-7-sulfonamide] | – | 831 | > 10 | –
23 | O=S(=O)(Nc1cccc(F)n1)c1ccc2c(c1)OCCC2c1ccc(C(F)(F)F)cc1O[C@H]1CCOC1 (stereo partly drawn) [Example-181, (R&S)—N-(6-fluoropyridin-2-yl)-4-(2-(((S)-tetrahydrofuran-3-yl)oxy)-4-(trifluoromethyl)phenyl)chroman-7-sulfonamide] | – | 0.9 | – | 43
24 | O=S(=O)(Nc1ncccn1)c1ccc2c(c1)OCCC2c1ccc(C(F)(F)F)cc1O[C@@H]1CCOC1 (stereo partly drawn) [Example-185, (S&R)—N-(pyrimidin-2-yl)-4-(2-(((R)-tetrahydrofuran-3-yl)oxy)-4-(trifluoromethyl)phenyl)chroman-7-sulfonamide] | – | 1020 | > 10 | –
25 | O=S(=O)(Nc1ncccn1)c1ccc2c(c1)OCCC2c1ccc(C(F)(F)F)cc1O[C@@H]1CCOC1 (stereo partly drawn) [Example-186, (S&R)—N-(pyrimidin-2-yl)-4-(2-(((R)-tetrahydrofuran-3-yl)oxy)-4-(trifluoromethyl)phenyl)chroman-7-sulfonamide] | – | 83 | – | 46
26 | O=C(O)c1ccc(-c2cc(C(F)(F)F)ccc2[C@H]2CCOc3cc(S(=O)(=O)Nc4ncccn4)ccc32)cc1 [Example-188, (S&R)-2′-(7-(N-(pyrimidin-2-yl)sulfamoyl)chroman-4-yl)-5′-(trifluoromethyl)-[1,1′-biphenyl]-4-carboxylic acid] | – | 67 | > 10 | –
27 | O=C(O)c1ccc(-c2cc(C(F)(F)F)ccc2[C@@H]2CCOc3cc(S(=O)(=O)Nc4ncc(F)cn4)ccc32)cc1 [Example-189, (S&R)-2′-(7-(N-(5-fluoropyrimidin-2-yl)sulfamoyl)chroman-4-yl)-5′-(trifluoromethyl)-[1,1′-biphenyl]-4-carboxylic acid] | – | 1810 | > 10 | –
28 | O=S(=O)(Nc1cccnn1)c1ccc2c(c1)OCC[C@H]2c1ccc(C(F)(F)F)cc1-c1ccc(F)cn1 [Example-199, (S&R)-4-(2-(5-fluoropyridin-2-yl)-4-(trifluoromethyl)phenyl)-N-(pyridazin-3-yl)chroman-7-sulfonamide] | – | 355 | > 10 | –
29 | O=S(=O)(Nc1cccnn1)c1ccc2c(c1)OCC[C@@H]2c1ccc(C(F)(F)F)cc1-c1ccc(F)cn1 [Example-200, (S&R)-4-(2-(5-fluoropyridin-2-yl)-4-(trifluoromethyl)phenyl)-N-(pyridazin-3-yl)chroman-7-sulfonamide] | – | 0.5 | > 10 | –
